Measurements as given in PubChem BioAssay AID504515 (Sanford-Burnham Center for Chemical Genomics, 2011).
Calls of active or inactive are those of the source.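 How the source made its calls: active means mean IC50 below 800 nM; inactive means the rest.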

tested on: Jurkat NF-kB luciferase, PMA/ionomycin-induced, luminescence 16 h; experiment: NF-kB reporter inhibition in Jurkat T cells, SAR follow-up, B-cell antigen receptor NF-kB inhibitors, cell-based, luminescence, set 2 (AID 504515)

SMILES | IC50
CCCOc1ccc(-c2nc(CSCC(=O)NC3CC3)c(C)o2)cc1 | > 800 nM (inactive)
Cc1oc(-c2ccc(OC(F)(F)F)cc2)nc1CSCC(=O)O | 290 nM
CCOc1ccc(-c2nc(CSCC(=O)O)c(C)o2)cc1 | 30 nM
CCCOc1ccc(-c2nc(CSCC(=O)NCc3ccco3)c(C)o2)cc1 | > 800 nM (inactive)
CCOc1ccc(-c2nc(CSCC(N)=O)c(C)o2)cc1 | > 800 nM (inactive)

More lines, now with the values ahead:

IC50 | SMILES
> 800 nM (inactive) | CCCCc1ccc(-c2noc(CCC(=O)NCC)n2)cc1
> 800 nM (inactive) | C#CCNC(=O)CSCc1nc(-c2ccc(OCC)cc2)oc1C
> 800 nM (inactive) | CC(C)c1ccc(-c2noc(CCC(=O)NC3CC3)n2)cc1
70 nM | CCCCOc1ccc(-c2nc(CSCC(=O)O)c(C)o2)cc1
> 800 nM (inactive) | CCCCc1ccc(-c2noc(CCC(=O)NC)n2)cc1
30 nM | CCCOc1ccc(-c2nc(CSCC(=O)O)c(C)o2)cc1
